The test system of assay [1] is mixed neuronal-astrocyte cultures. Nature of the assay: cells. The conditions noted are these: Mus musculus.
The test system is the same in assay [2].
Another assay relates to glutaminase. The conditions noted are these: Kovacevic and McGiven, 1983; read-out: Km of glutaminase for glutamine; cited from earlier work.
For assay [3], the system named is ischemic penumbra (dialysate glutamate). Nature of the assay: In vivo microdialysis of ischemic penumbra after MCAO. Further details: species or system rat. Conditions: 10 mM glutamine plus 20 mM sodium phosphate, 1 h; ±115%. As to the method: In further microdialysis experiments, exogenous glutamine was added to the ischemic penumbra via the probe, and dialysis glutamate was measured, as described in Example 7. When 10 mM glutamine plus 20 mM sodium phosphate were perfused into the penumbra for one hour, dialysate glutamate was elevated 315% as compared to control (±115%). […] The effects on glutamate were much more pronounced than on other amino acids measured; therefore, these studies provided further support for the involvement of extracellular glutaminase activity in producing the elevated levels of glutamate in cortical tissue undergoing ischemic damage.
The middle cerebral arteries of rats were occluded as in EXAMPLE 7, and the rats were returned to their cages overnight. The next morning, dialysis probes ([…], 2 mm length, 20,000 dalton cutoff) were inserted into ischemic penumbra (cortex) and perfused with artificial CSF at 3 μl/min for 1 h prior to collection of 10 minute fractions of dialysate. The effectiveness of the occlusion and the placement of probes were verified by TTC staining of 1 mm sections at the conclusion of the experiment. Amino acids in the dialysate were measured by reverse phase HPLC with fluorescence detection, after derivatization of the dialysates with o-phthaldialdehyde and N-acetyl-L-cysteine […]

For assay [4], the system named is glial cultures (astrocytes). Nature of the assay: Glutamate production in intact glial cultures with added glutamine. Type of assay: cell-based, mouse (Swiss Webster). On the procedure:
The glutamate concentration of glial cultures was maintained below 1 μM when cells were maintained in the absence or presence of 2 mM added glutamine or when subjected to hypoxic conditions (see below). The medium glutamate concentration remained unchanged between 7 and 24 h after medium change and was 0.14±0.04 μM and 0.36±0.06μM in medium containing 0.15 mM or 2.0 mM glutamine, respectively. Based on these steady state concentrations and the measured rate of glutamate uptake, the rates of glutamate production in the absence and presence of added glutamine were calculated to be 0.012 μM/min (4.8 pmol/min) and 0.030 μM/min (12 pmol/min), respectively. Thus, the calculated rates of glutamate production by glial cultures are only slightly affected by the addition of glutamine and are similar to those observed in intact neurons cultured in the absence of added glutamine.
Pre-column derivatization with o-phthalaldehyde (OPA, Sigma) and separation by reversed phase HPLC was used. A Gilson HPLC was fitted with a Hewlett-Packard model 1046A fluorimetric detector (excitation 340 nm, emission 420 nm). Medium was collected from cell culture at various times, and frozen at -80° C., prior to dilution of 5 or 10 μl into auto-sampler vials containing 40 or 45 μl dimethylformamide:water 1:3 (derivatives with 2-mercaptoethanol) or 1:9 (derivatives with N-acetyl-L-cysteine). […]
In cultures where glutamate concentrations are (within error) constant, d[Glu]/dt is close to zero, and cellular production of medium glutamate is balanced by its removal, such that glutamate production can be calculated from the steady state equation: […]
Calculations were performed using the slopes of the regression lines which describe the rate constants for glutamate removal and the mean values for culture medium glutamate concentrations. […] For comparative purposes, glutamate production rates can be expressed as pmol of glutamate produced per min in each culture. […]

Values joined by “and” are separate entries in the source; they are usually repeats but may differ in a detail not shown here. Equal values may be shown once. Read-outs that look alike come from different tables or passages of the source.

Turning to `NC(=O)CC[C@H](N)C(=O)O` [Gln, glutamine], the cytotoxicity at 2000 µM was 48.5 ± 14.4% in assay [1] (7 h, read-out: neuronal LDH release); 42.2% in assay [1] (24 h, read-out: % cell death (LDH)); about 40% in assay [1] (read-out: neuronal death in hypoxia with added glutamine). Also, the Glu in assay [2] is 3.1 ± 0.28 and 3.88 ± 0.14. In assay [2], this compound registered a medium glutamate of 2.3 ± 1.1 μM Glu. The Michaelis constant (Km) (as a rule, the concentration of substrate that gives half-maximal velocity) with glutaminase is 2 to 8 mM. For the same compound, the “dialysate glutamate elevation vs control” value in assay [3] worked out at 315%. For the same compound, the Glutamate concentration in assay [4] (Table 2, glial, 2 mM Gln) is listed as 0.36 ± 0.06. In addition, in assay [4] (Table 2, glial, 2 mM Gln), the “Glutamate production (S)” value came out at 0.03. For the same compound, the “glutamate production per culture” value in assay [4] (glial, 2 mM glutamine) is listed as 12 pmol/min.
